# Measurements taken from US8865679B2 (priority 2001, dated 2014).
# Where “and” joins values, the source holds several entries; their conditions need not be identical. Equal values may be shown once.
# Experiments:
# Settings in all cases: mouse, in vivo
# B. anthracis spores = system: B. anthracis spores; parameters: species or system mouse (Balb/c)
# B. anthracis = system: B. anthracis; parameters: species or system mouse (Balb/c)
# E. coli strain TVDL-rat = system: E. coli strain TVDL-rat; parameters: species or system mice
substance,measurement,setting,value
"poly-(1,6)-β-D-glucopyranosyl (1,3)β-D-glucopyranose [PGG]",mean survival time,B. anthracis spores,10.2 days and 11.5 days
same,number of survivors out of 22 mice,B. anthracis spores,19
same,percent survivors,B. anthracis spores,86.36%
same,"survival, data pooled from the two experiments",B. anthracis spores,10.86 days
same,bacteria-free animals,B. anthracis,86.4%
same,bacterial load in lung of surviving animals,B. anthracis,2.6×10^5 CFU/g lung
same,survival rate,E. coli strain TVDL-rat,90% and 75% and 70%
